According to patent US7488716B2 (priority 2001, dated 2009):
Where a SMILES comes first, the peptide text is derived from it. The star is where a group is joined. Palmitoyl = CCCCCCCCCCCCCCCC(=O)*

Assays:
GLP-1 receptor [1] = target: T1, GLP-1 receptor (Rattus norvegicus, UniProt P32301); assay: Peptide signaling through GLP-1 receptor, cAMP scintillation proximity assay in RINm5F cells; type: cell-based; conditions: for GLP1 Relative Potency: EC50 of native GLP-1 (7-36) divided by EC50 of polypeptide x 100, cAMP in RINm5F cells; for Emax: RIN-m5F, read-out: % GLP1 max
T1 construct: endogenous in cells; host or cells: RINm5F cells
T1 sequence (P32301 22-463): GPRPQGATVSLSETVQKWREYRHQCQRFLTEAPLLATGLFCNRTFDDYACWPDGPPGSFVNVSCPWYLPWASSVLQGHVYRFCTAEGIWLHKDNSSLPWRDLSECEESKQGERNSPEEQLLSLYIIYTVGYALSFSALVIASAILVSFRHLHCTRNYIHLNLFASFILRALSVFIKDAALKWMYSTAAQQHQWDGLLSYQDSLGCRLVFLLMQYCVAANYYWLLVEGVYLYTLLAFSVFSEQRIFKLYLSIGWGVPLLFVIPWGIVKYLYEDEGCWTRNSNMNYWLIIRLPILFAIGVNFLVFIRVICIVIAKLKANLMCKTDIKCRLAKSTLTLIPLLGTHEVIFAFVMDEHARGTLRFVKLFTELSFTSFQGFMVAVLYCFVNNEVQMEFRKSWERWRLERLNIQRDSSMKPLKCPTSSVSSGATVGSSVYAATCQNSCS
Method: The media was removed and the cells were washed twice with PBS. […] For assay of peptides conjugated with fatty acid, the BSA was omitted from the incubation buffer. The incubation buffer was removed, and the cells were lysed in the lysis reagent provided with the cAMP Scintillation Proximity Assay (SPA) direct screening assay system (Amersham Pharmacia Biotech Inc, Piscataway, N.J.). The amount of cAMP (in pmol) present in the lysates was determined following instructions provided with this kit.
The amount of cAMP (in pmol) produced at each concentration of peptide was plotted and analyzed by nonlinear regression using Prizm software to determine the EC50 for each peptide.

[2] = Intraperitoneal glucose tolerance testing (IPGTT) in rats or mice; type: in vivo; conditions: ipGTT in mice 3 hours post dosing with 100 μg/kg peptide
Method: Blood glucose levels during intraperitoneal glucose tolerance testing in rats or mice by some polypeptides of the invention were measured as follows. The in vivo activity of the polypeptides of the invention when administered subcutaneously was examined in rats or mice. Rats or mice fasted overnight were given a subcutaneous injection of control or peptide (100 μg/kg). Basal blood glucose was measured prior to administration of peptides or three or 17 hours after administration of derivatized peptides, and the rats or mice were given 2 g/kg of glucose intraperitoneally. Blood glucose was measured again after 15, 30 and 60 minutes in rats or 30 and 60 minutes in mice.

glucagon receptor = target: T2, glucagon receptor (Rattus norvegicus, UniProt P30082); assay: Competitive binding of peptide to the glucagon receptor in rat liver plasma membranes (125I glucagon)
T2 construct: glucagon receptor present in the plasma membranes isolated from rat liver; from tissue; host or cells: rat liver plasma membranes
Method: The wet weight of the livers was determined and the tissue minced in 5 volumes of ice cold TES buffer and a slurry prepared using a polytron. All buffers and spins were kept at 4° C. The slurry was further homogenized using three strokes of a handheld dounce homogenizer. The homogenate was passed through several layers of cheesecloth and spun at 25,000×g for 10 minutes. Pellets were homogenized in 22.1 ml TES buffer using 10 strokes of a handheld dounce homogenizer. Twenty-seven point nine milliliters of 2.4 M sucrose in TE was added and mixed well. The homogenate was distributed among several tubes, and each tube was overlaid with 7 ml of TES buffer. The tubes were spun at 120,000×g for 60 minutes. The plasma membranes were removed from the interface that formed during the spin, diluted in TES and concentrated using a 15 minute spin at 200,000×g. The resulting pellet was again homogenized in 9.8 ml TES buffer, combined with 10.3 ml 2.4M sucrose, overlaid with 7 ml TES, and centrifuged at 180,000×g for 30 min. […] The final pellet was resuspended in TES. Plasma membranes were stored at −80° C. until ready for use.
(§1) Competitive binding of some polypeptides of the invention to rat liver plasma membranes was measured as follows. Ninety-six-well GF/C filtration plates (Millipore, Bedford, Mass.) were blocked with 0.1% PEI for at least one hour and washed twice with binding buffer consisting of 20 mM Tris, 2 mM EDTA, pH 7.5, 1 mg/ml BSA, and 1 mg/ml bacitracin. […] The plates were dried, scintillant was added to each well, and cpm per well determined using a Wallac Microbeta counter.

GLP-1 receptor [3] = target: T1, GLP-1 receptor; assay: Competitive binding of peptide to the GLP-1 receptor in RINm5F cell plasma membranes (125I GLP-1); conditions: read-out: GLP1 RIN IC50
Method: Flasks of RINm5F cells were washed with PBS, scraped in 20 mM Hepes-1 mM EDTA-250 mM sucrose buffer containing protease inhibitors (HES) and homogenized in a dounce homogenizer followed by repeated resuspension through a 23 gauge needle. Unbroken cells and nuclei were removed by centrifugation at 500×g for 5 minutes. The pellet was resuspended in HES buffer using a 23 gauge needle and the centrifugation was repeated. The supernatants from the two spins were combined and centrifuged at 40,000×g for 20 min. The resulting plasma membrane pellet was resuspended in HES buffer using a 23 gauge needle followed by a 25 gauge needle. Membranes were stored at −80° C. until use.
as §1, with “RINm5F cell” for “rat liver”, “0.3%” for “0.1%”

T2 sequence (P30082 27-485): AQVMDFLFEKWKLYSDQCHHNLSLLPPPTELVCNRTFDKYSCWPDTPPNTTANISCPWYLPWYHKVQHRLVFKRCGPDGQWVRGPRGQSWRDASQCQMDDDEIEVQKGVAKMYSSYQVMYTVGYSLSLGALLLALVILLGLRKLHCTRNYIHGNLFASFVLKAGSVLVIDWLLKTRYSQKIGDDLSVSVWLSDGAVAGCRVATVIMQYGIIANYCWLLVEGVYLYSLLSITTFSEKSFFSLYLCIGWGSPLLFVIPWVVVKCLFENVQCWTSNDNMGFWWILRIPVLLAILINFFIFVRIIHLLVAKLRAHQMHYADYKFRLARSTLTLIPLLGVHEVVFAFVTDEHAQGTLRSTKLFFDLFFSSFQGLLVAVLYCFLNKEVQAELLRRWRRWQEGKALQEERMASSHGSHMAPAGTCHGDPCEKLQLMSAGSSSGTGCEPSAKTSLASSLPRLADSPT

CCCCCCCCCCCCCCCC(=O)NCCCC[C@H](NC(=O)[C@@H](NC(=O)[C@H](Cc1ccccc1)NC(=O)[C@H](CCC(=O)O)NC(=O)[C@H](CCCNC(=N)N)NC(=O)[C@H](C)NC(=O)[C@H](CCCNC(=N)N)NC(=O)[C@H](CCCNC(=N)N)NC(=O)[C@H](C)NC(=O)[C@H](CC(=O)O)NC(=O)[C@H](CC(C)C)NC(=O)[C@H](Cc1ccc(O)cc1)NC(=O)[C@H](CCCNC(=N)N)NC(=O)[C@H](C)NC(=O)[C@H](Cc1ccc(O)cc1)NC(=O)[C@H](CC(=O)O)NC(=O)[C@H](CO)NC(=O)[C@@H](NC(=O)[C@H](Cc1ccccc1)NC(=O)[C@@H](NC(=O)CNC(=O)[C@H](CCC(N)=O)NC(=O)[C@H](CO)NC(=O)[C@@H](N)Cc1c[nH]cn1)[C@@H](C)O)[C@@H](C)O)[C@@H](C)CC)C(=O)N[C@@H](Cc1c[nH]c2ccccc12)C(=O)N[C@@H](CC(C)C)C(=O)N[C@H](C(=O)N[C@@H](CCCNC(=N)N)C(=O)NCC(=O)N[C@@H](CCCNC(=N)N)C(=O)NCC(=O)O)C(C)C [G90]
GLP1 Relative Potency (GLP-1 receptor [1]): 0.8% | Emax (GLP-1 receptor [1]): 83.5% | In vivo Decrease IpGTT AUC [2]: 13% | IC50 (glucagon receptor): 726 nM | IC50 (GLP-1 receptor [3]): 25.4 nM

CCCCCCCCCCCCCCCC(=O)NCCCC[C@H](NC(=O)[C@H](CCCNC(=N)N)NC(=O)CNC(=O)[C@H](CCCCN)NC(=O)[C@@H](NC(=O)[C@H](CC(C)C)NC(=O)[C@H](Cc1c[nH]c2ccccc12)NC(=O)[C@H](C)NC(=O)[C@@H](NC(=O)[C@H](Cc1ccccc1)NC(=O)[C@H](CCC(=O)O)NC(=O)[C@H](CCCCN)NC(=O)[C@H](C)NC(=O)[C@H](CCCNC(=N)N)NC(=O)[C@H](CCCNC(=N)N)NC(=O)[C@H](C)NC(=O)[C@H](CC(=O)O)NC(=O)[C@H](CC(C)C)NC(=O)[C@H](Cc1ccc(O)cc1)NC(=O)[C@H](CCCCN)NC(=O)[C@H](C)NC(=O)[C@H](Cc1ccc(O)cc1)NC(=O)[C@H](CC(=O)O)NC(=O)[C@H](CO)NC(=O)[C@@H](NC(=O)[C@H](Cc1ccccc1)NC(=O)[C@@H](NC(=O)CNC(=O)[C@H](CCC(N)=O)NC(=O)[C@H](CO)NC(=O)[C@@H](N)Cc1c[nH]cn1)[C@@H](C)O)[C@@H](C)O)[C@@H](C)CC)C(C)C)C(=O)O [G88] (H-HSQGTFTSDYAKYLDARRAKEFIAWLVKGRK(Palmitoyl)-OH; N-terminus and C-terminus assumed)
GLP1 Relative Potency (GLP-1 receptor [1]): 2.3% | Emax (GLP-1 receptor [1]): 118% | In vivo Decrease IpGTT AUC [2]: 16% | IC50 (glucagon receptor): 350 nM | IC50 (GLP-1 receptor [3]): 109 nM

CCCCCCCCCCCCCCCC(=O)NCCCC[C@H](NC(=O)[C@H](C)NC(=O)[C@H](CCCNC(=N)N)NC(=O)[C@H](CCCNC(=N)N)NC(=O)[C@H](C)NC(=O)[C@H](CC(=O)O)NC(=O)[C@H](CC(C)C)NC(=O)[C@H](Cc1ccc(O)cc1)NC(=O)[C@H](CCCCN)NC(=O)[C@H](C)NC(=O)[C@H](Cc1ccc(O)cc1)NC(=O)[C@H](CC(=O)O)NC(=O)[C@H](CO)NC(=O)[C@@H](NC(=O)[C@H](Cc1ccccc1)NC(=O)[C@@H](NC(=O)CNC(=O)[C@H](CCC(N)=O)NC(=O)[C@H](CO)NC(=O)[C@@H](N)Cc1c[nH]cn1)[C@@H](C)O)[C@@H](C)O)C(=O)N[C@@H](CCC(=O)O)C(=O)N[C@@H](Cc1ccccc1)C(=O)N[C@H](C(=O)N[C@@H](C)C(=O)N[C@@H](Cc1c[nH]c2ccccc12)C(=O)N[C@@H](CC(C)C)C(=O)N[C@H](C(=O)N[C@@H](CCCCN)C(=O)NCC(=O)N[C@@H](CCCNC(=N)N)C(N)=O)C(C)C)[C@@H](C)CC [G87] (H-HSQGTFTSDYAKYLDARRAK(Palmitoyl)EFIAWLVKGR-NH2; N-terminus assumed)
GLP1 Relative Potency (GLP-1 receptor [1]): 6.1% | Emax (GLP-1 receptor [1]): 100% | In vivo Decrease IpGTT AUC [2]: 13% | IC50 (glucagon receptor): 620 nM | IC50 (GLP-1 receptor [3]): 98.6 nM
